Patent US20250049035A1, “MICROBIOCIDAL BICYCLE HETEROCYCLIC DERIVATIVES” (SYNGENTA CROP PROTECTION AG, priority 2021, published 2025)

Key:
[1] = test system: Glomerella lagenarium (Colletotrichum lagenarium); assay: Glomerella lagenarium (Colletotrichum lagenarium) / liquid culture (anthracnose); format: cell-based; conditions: Colletotrichum orbiculare, liquid culture (potato dextrose broth), growth inhibition photometrically 3-4 days after application, compared to untreated control
Protocol: Example B3: Glomerella lagenarium (Colletotrichum lagenarium)/Liquid Culture (Anthracnose) Conidia of the fungus from cryogenic storage are directly mixed into a nutrient broth (potato dextrose broth). After placing a DMSO solution of test compound into a microtiter plate (96-well format), the nutrient broth containing the fungal spores is added. The test plates are incubated at 24° C. and the inhibition of growth is measured photometrically 3-4 days after application.

[2] = test system: Phaeosphaeria nodorum (Septoria nodorum); assay: Phaeosphaeria nodorum (Septoria nodorum) / wheat / leaf disc preventative (glume blotch); format: in vivo; conditions: Parastagonospora nodorum, foliar, wheat leaf segments cv. Kanzler, inoculated 2 days after application, assessed 5-7 days after application, compared to untreated control
Protocol: Example B8: Phaeosphaeria Nodorum (Septoria nodorum)/Wheat/Leaf Disc Preventative (Glume Blotch) Wheat leaf segments cv. Kanzler are placed on agar in a multiwell plate (24-well format) and sprayed with the formulated test compound diluted in water. The leaf disks are inoculated with a spore suspension of the fungus 2 days after application. The inoculated test leaf disks are incubated at 20° C. and 75% relative humidity under a light regime of 12 h light/12 h darkness in a climate cabinet and the activity of a compound is assessed as percent disease control compared to untreated when an appropriate level of disease damage appears in untreated check leaf disks (5-7 days after application).

Fusarium culmorum = assay: microbe, parasite or virus in culture; format: cell-based; conditions: read-out: control of Fusarium culmorum
Alternaria solani = Alternaria solani / tomato / leaf disc (early blight); format: in vivo; conditions: foliar, tomato leaf disks cv. Baby, inoculated 2 days after application, assessed 5-7 days after application, compared to untreated control
Protocol: Example B1: Alternaria solani/Tomato/Leaf Disc (Early Blight) Tomato leaf disks cv. Baby are placed on agar in multiwell plates (24-well format) and sprayed with the formulated test compound diluted in water. The leaf disks are inoculated with a spore suspension of the fungus 2 days after application. The inoculated leaf disks are incubated at 23° C./21° C.

Sclerotinia sclerotiorum = Sclerotinia sclerotiorum / liquid culture (cottony rot); format: cell-based; conditions: liquid culture (potato dextrose broth), growth inhibition photometrically 3-4 days after application, compared to untreated control
Protocol: Example B14: Sclerotinia sclerotiorum/Liquid Culture (Cottony Rot) Mycelia fragments of a newly grown liquid culture of the fungus are directly mixed into a nutrient broth (potato dextrose broth). After placing a DMSO solution of test compound into a microtiter plate (96-well format) the nutrient broth containing the fungal material is added. The test plates are incubated at 24° C. and the inhibition of growth is determined photometrically 3-4 days after application.

[3] = test system: Mycosphaerella graminicola (Septoria tritici); assay: Mycosphaerella graminicola (Septoria tritici) / liquid culture (Septoria blotch); format: cell-based; conditions: Zymoseptoria tritici, liquid culture (potato dextrose broth), growth inhibition photometrically 4-5 days after application, compared to untreated control
Protocol: Example B15: Mycosphaerella graminicola (Septoria tritici/Liquid Culture (Septoria Blotch) Conidia of the fungus from cryogenic storage are directly mixed into a nutrient broth (potato dextrose broth). After placing a DMSO solution of test compound into a microtiter plate (96-well format), the nutrient broth containing the fungal spores is added. The test plates are incubated at 24° C. and the inhibition of growth is determined photometrically 4-5 days after application.

[4] = test system: Monographella nivalis (Microdochium nivale); assay: Monographella nivalis (Microdochium nivale) / liquid culture (foot rot cereals); format: cell-based; conditions: liquid culture (potato dextrose broth), growth inhibition photometrically 4-5 days after application, compared to untreated control
Protocol: Example B9: Monographella nivalis (Microdochium nivale)/Liquid Culture (Foot Rot Cereals) Conidia of the fungus from cryogenic storage are directly mixed into a nutrient broth (potato dextrose broth). After placing a DMSO solution of test compound into a microtiter plate (96-well format), the nutrient broth containing the fungal spores is added. The test plates are incubated at 24° C. and the inhibition of growth is determined photometrically 4-5 days after application.

[5] = test system: Botryotinia fuckeliana (Botrytis cinerea); assay: Botryotinia fuckeliana (Botrytis cinerea) / liquid culture (gray mould); format: cell-based; conditions: liquid culture (Vogels broth), growth inhibition photometrically 3-4 days after application, compared to untreated control
Protocol: Example B2: Botryotinia fuckeliana (Botrytis cinerea)/Liquid Culture (Gray Mould) Conidia of the fungus from cryogenic storage are directly mixed into a nutrient broth (Vogels broth). After placing a DMSO solution of test compound into a microtiter plate (96-well format), the nutrient broth containing the fungal spores is added. The test plates are incubated at 24° C. and the inhibition of growth is determined photometrically 3-4 days after application.

[6] = test system: Mycosphaerella arachidis (Cercospora arachidicola); assay: Mycosphaerella arachidis (Cercospora arachidicola) / liquid culture (early leaf spot); format: cell-based; conditions: liquid culture (potato dextrose broth), growth inhibition photometrically 4-5 days after application, compared to untreated control
Protocol: Example B10: Mycosphaerella arachidis (Cercospora arachidicola)/Liquid Culture (Early Leaf Spot) Conidia of the fungus from cryogenic storage are directly mixed into a nutrient broth (potato dextrose broth) After placing a DMSO solution of test compound into a microtiter plate (96-well format), the nutrient broth containing the fungal spores is added. The test plates are incubated at 24° C. and the inhibition of growth is determined photometrically 4-5 days after application.

Pyrenophora teres = Pyrenophora teres / barley / leaf disc preventative (net blotch); format: in vivo; conditions: foliar, barley leaf segments cv. Hasso, inoculated 2 days after application, assessed 5-7 days after application, compared to untreated control
Protocol: Example B12: Pyrenophora teres/Barley/Leaf Disc Preventative (Net Blotch) Barley leaf segments cv. Hasso are placed on agar in a multiwell plate (24-well format) and sprayed with the formulated test compound diluted in water. The leaf segments are inoculated with a spore suspension of the fungus 2 days after application. The inoculated leaf segments are incubated at 20° C. and 65% relative humidity under a light regime of 12 h light/12 h darkness in a climate cabinet and the activity of a compound is assessed as disease control compared to untreated when an appropriate level of disease damage appears in untreated check leaf segments (5-7 days after application).

[7] = test system: Blumeria graminis f. sp. tritici (Erysiphe graminis f. sp. tritici); assay: Blumeria graminis f. sp. tritici / wheat / leaf disc preventative (powdery mildew); format: in vivo; conditions: foliar, wheat leaf segments cv. Kanzler, inoculated 1 day after application, assessed 6-8 days after application, compared to untreated control
Protocol: Example B4: Blumeria graminis f. sp. tritici (Erysiphe graminis f. sp. tritici)/Wheat/Leaf Disc Preventative (Powdery Mildew on Wheat) Wheat leaf segments cv. Kanzler are placed on agar in a multiwell plate (24-well format) and sprayed with the formulated test compound diluted in water. The leaf disks are inoculated by shaking powdery mildew infected plants above the test plates 1 day after application. The inoculated leaf disks are incubated at 20° C. and 60% relative humidity under a light regime of 24 h darkness followed by 12 h light/12 h darkness in a climate chamber and the activity of a compound is assessed as percent disease control compared to untreated when an appropriate level of disease damage appears on untreated check leaf segments (6-8 days after application).

C[C@H]1c2sccc2[C@@](C)(c2cnn(C)c2)CN1C(=O)c1nnc(-c2ccc(F)cc2F)s1 (racemic) [Compound P-10, [5-(2,4-difluorophenyl)-1,3,4-thiadiazol-2-yl]-[rac-(4S,7R)-4,7-dimethyl-4-(1-methylpyrazol-4-yl)-5,7-dihydrothieno[2,3-c]pyridin-6-yl]methanone]
≥ 80%: inhibition of growth at 20 ppm [1] | pest or weed control at 200 ppm [2] | inhibition of growth at 20 ppm (Fusarium culmorum) | pest or weed control at 200 ppm (Alternaria solani) | inhibition of growth at 20 ppm (Sclerotinia sclerotiorum) | inhibition of growth at 20 ppm [3] | inhibition of growth at 20 ppm [4] | inhibition of growth at 20 ppm [5] | inhibition of growth at 20 ppm [6]

C[C@H]1c2sccc2[C@@](C)(c2cnn(C)c2)CN1C(=O)c1cc(-c2ccc(F)cc2F)on1 (racemic) [Compound P-12, [5-(2,4-difluorophenyl)isoxazol-3-yl]-[rac-(4S,7R)-4,7-dimethyl-4-(1-methylpyrazol-4-yl)-5,7-dihydrothieno[2,3-c]pyridin-6-yl]methanone]
≥ 80%: inhibition of growth at 20 ppm [1] | pest or weed control at 200 ppm [2] | pest or weed control at 200 ppm (Alternaria solani) | inhibition of growth at 20 ppm (Sclerotinia sclerotiorum) | inhibition of growth at 20 ppm [3] | inhibition of growth at 20 ppm [4] | inhibition of growth at 20 ppm [5] | inhibition of growth at 20 ppm [6]

Cn1cc(C2(C)CN(C(=O)c3cc(-c4ccc(F)cc4F)on3)Cc3sccc32)cn1 (stereo not shown) [Compound P-19, [5-(2,4-difluorophenyl)isoxazol-3-yl]-[4-methyl-4-(1-methylpyrazol-4-yl)-5,7-dihydrothieno[2,3-c]pyridin-6-yl]methanone]
≥ 80%: inhibition of growth at 20 ppm [1] | pest or weed control at 200 ppm [2] | pest or weed control at 200 ppm (Alternaria solani) | inhibition of growth at 20 ppm (Sclerotinia sclerotiorum) | inhibition of growth at 20 ppm [3] | inhibition of growth at 20 ppm [5] | pest or weed control at 200 ppm (Pyrenophora teres) | pest or weed control at 200 ppm [7] | inhibition of growth at 20 ppm [6]

Cn1cc(C2(C)CN(C(=O)c3nnc(-c4ccc(F)cc4F)s3)Cc3ccsc32)cn1 (stereo not shown) [Compound P-22, [5-(2,4-difluorophenyl)-1,3,4-thiadiazol-2-yl]-[7-methyl-7-(1-methylpyrazol-4-yl)-4,6-dihydrothieno[3,2-c]pyridin-5-yl]methanone]
≥ 80%: inhibition of growth at 20 ppm [1] | pest or weed control at 200 ppm [2] | inhibition of growth at 20 ppm [3] | inhibition of growth at 20 ppm [4] | inhibition of growth at 20 ppm [5] | pest or weed control at 200 ppm (Pyrenophora teres) | inhibition of growth at 20 ppm [6]

Cc1c(C2CN(C(=O)c3cc(-c4ccc(F)cc4F)on3)Cc3nnsc32)cnn1C (stereo not shown) [Compound P-27, [5-(2,4-difluorophenyl)isoxazol-3-yl]-[7-(1,5-dimethylpyrazol-4-yl)-6,7-dihydro-4H-thiadiazolo[4,5-c]pyridin-5-yl]methanone]
≥ 80%: inhibition of growth at 20 ppm [1] | pest or weed control at 200 ppm [2] | pest or weed control at 200 ppm (Alternaria solani) | inhibition of growth at 20 ppm [3] | inhibition of growth at 20 ppm [4] | pest or weed control at 200 ppm (Pyrenophora teres) | pest or weed control at 200 ppm [7]

Cc1c(C2CN(C(=O)c3cc(-c4ccc(F)cc4)on3)Cc3sccc32)cnn1C (stereo not shown) [Compound P-30, [4-(1,5-dimethylpyrazol-4-yl)-5,7-dihydro-4H-thieno[2,3-c]pyridin-6-yl]-[5-(4-fluorophenyl)isoxazol-3-yl]methanone]
≥ 80%: inhibition of growth at 20 ppm [1] | pest or weed control at 200 ppm [2] | pest or weed control at 200 ppm (Alternaria solani) | inhibition of growth at 20 ppm (Sclerotinia sclerotiorum) | inhibition of growth at 20 ppm [3] | inhibition of growth at 20 ppm [4] | inhibition of growth at 20 ppm [5] | pest or weed control at 200 ppm (Pyrenophora teres) | inhibition of growth at 20 ppm [6]

Cc1c(C2CN(C(=O)c3cc(-c4ccccc4F)on3)Cc3sccc32)cnn1C (stereo not shown) [Compound P-31, [4-(1,5-dimethylpyrazol-4-yl)-5,7-dihydro-4H-thieno[2,3-c]pyridin-6-yl]-[5-(2-fluorophenyl)isoxazol-3-yl]methanone]
≥ 80%: inhibition of growth at 20 ppm [1] | pest or weed control at 200 ppm [2] | pest or weed control at 200 ppm (Alternaria solani) | inhibition of growth at 20 ppm [3] | inhibition of growth at 20 ppm [4] | inhibition of growth at 20 ppm [5] | pest or weed control at 200 ppm (Pyrenophora teres) | inhibition of growth at 20 ppm [6]

Cc1c(C2CN(C(=O)c3cc(-c4ccccc4F)on3)Cc3ccsc32)cnn1C (stereo not shown) [Compound P-35, [7-(1,5-dimethylpyrazol-4-yl)-6,7-dihydro-4H-thieno[3,2-c]pyridin-5-yl]-[5-(2-fluorophenyl)isoxazol-3-yl]methanone]
≥ 80%: pest or weed control at 200 ppm [7]
